Structures can show the parent of a compound that is named as a salt.
Target: T1, human S1P1 (Homo sapiens, UniProt P21453)
T1 construct: expressed in transfected cells
Assay: 35S-GTPγS binding assay using a membrane prepared from CHO cells which stably express S1P1 receptor
Type: biochemical
Conditions: CHO cell membrane fraction stably expressing human S1P1, read-out: EC50 (concentration of agonist required to give 50% of its own maximum increase ratio), human S1P1
Description: ^35S-GTPγS Binding Assay Using a Membrane Prepared from CHO Cells Which Stably Express S1P1 Receptor
Functional activation of human S1P1 by the compounds was determined based on quantification of ^35S-GTPγS binding to G protein due to the receptor activation, by using a cell membrane fraction prepared from CHO cells in which human S1P1 are stably expressed. As for human S1P1, the above described human S1P1 was used. Membrane proteins as prepared and various concentrations of sphingosine-1-phosphate or the compounds diluted in a solvent such as DMSO were incubated in a solution comprising 20 mM Tris-Cl (pH 7.5), 100 mM NaCl, 10 mM MgCl2, […] (Upstate), 0.1% BSA (fatty acid free, Sigma) and 25 pM ^35S-GTPγS (specific activity 1250 Ci/mmol) in 96 well microtiter plates. Binding was performed by incubating them for 90 minutes at room temperature, and then terminated by harvesting the membrane proteins onto multiscreeen harvest FB plates (Millipore) using Millipore multiscreen separation system. After drying the harvest plates at least for 12 hours, 25 μl of MicroScint-O (Perkin Elmer) was added to each well and radioactivity was measured using a Top Counter.
Having the value measured for the well to which a solvent has been added as a control value, the agonist activity of the compounds was determined by comparing the increase in the well to which a test compound has been added to the control value, and therefore an increase ratio for each concentration of the compounds was obtained. EC50 values were culcurated as defined to be the concentration of agonist required to give 50% of its own maximum increase ratio.

T1 sequence (P21453 whole entry): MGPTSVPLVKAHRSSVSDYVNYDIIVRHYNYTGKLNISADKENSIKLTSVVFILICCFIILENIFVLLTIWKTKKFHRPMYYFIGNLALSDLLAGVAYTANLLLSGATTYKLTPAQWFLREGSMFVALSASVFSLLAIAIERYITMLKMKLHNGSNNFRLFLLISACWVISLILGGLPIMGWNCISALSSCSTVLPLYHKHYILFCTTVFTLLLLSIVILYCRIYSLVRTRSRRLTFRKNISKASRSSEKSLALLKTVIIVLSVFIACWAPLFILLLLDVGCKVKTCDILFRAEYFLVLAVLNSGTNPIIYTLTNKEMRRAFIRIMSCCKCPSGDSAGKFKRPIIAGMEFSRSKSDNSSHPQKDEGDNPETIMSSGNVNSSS

Row | EC50 [nM] | SMILES
1 | < 10 | Cc1cc(-c2nc(-c3ccc4c(c3)CCC4N[C@H]3C[C@H](C(=O)O)C3)no2)ccc1-c1cc(Cl)ccc1F (stereo partly drawn) [Example 35]
2 | < 10 | O=C(O)[C@H]1C[C@H](N2Cc3ccc(-c4noc(-c5ccc(-c6ccccc6F)c(Cl)c5)n4)cc3C2)C1 [Example 68]
3 | < 10 | Cc1cc(-c2nc(-c3cc(C)c4c(c3)CN([C@H]3C[C@H](C(=O)O)C3)C4)no2)ccc1-c1ccccc1C(F)(F)F [Example 54]
4 | < 10 | Cc1cc(-c2nc(-c3ccc4c(c3)CCC4N[C@H]3C[C@H](C(=O)O)C3)no2)ccc1-c1ccoc1 (stereo partly drawn) [Example 14]
5 | < 10 | Cc1cc(-c2nc(-c3ccc4c(c3)CCC4N[C@H]3C[C@H](C(=O)O)C3)no2)ccc1-c1cccc(I)c1C(F)(F)F (stereo partly drawn) [Example 52]
6 | < 10 | Cc1cc(-c2nc(-c3ccc4c(c3)CN([C@H]3C[C@H](C(=O)O)C3)C4)no2)c(F)cc1-c1cccc(F)c1F [Example 93]
7 | < 10 | Cc1cc(-c2nc(-c3ccc4c(c3)CCC4N[C@H]3C[C@H](C(=O)O)C3)no2)ccc1-c1ccccc1C#N (stereo partly drawn) [Example 59]
8 | < 10 | Cc1cc(-c2nc(-c3ccc4c(c3)CCC4N[C@H]3C[C@H](C(=O)O)C3)no2)ccc1-c1ccccc1OC(F)(F)F (stereo partly drawn) [Example 17]
9 | < 10 | O=C(O)C1CC(NC2CCc3cc(-c4noc(-c5ccc(-c6ccccc6F)c(Cl)c5)n4)ccc32)C1 (stereo not drawn) [Example 55, 1,3-Trans-3-(5-(5-(2-chloro-2′-fluorobiphenyl-4-yl)-1,2,4-oxadiazol-3-yl)-2,3-dihydro-1H-inden-1-ylamino)cyclobutane carboxylic acid hydrochloric acid salt]
10 | < 10 | Cc1cc(-c2nc(-c3ccc4c(c3)CCC4N[C@H]3C[C@H](C(=O)O)C3)no2)ccc1-c1c(F)cccc1F (stereo partly drawn) [Example 42]
11 | < 10 | O=C(O)[C@H]1C[C@H](NC2CCc3cc(-c4noc(-c5ccc(-c6ccccc6)c(F)c5)n4)ccc32)C1 (stereo partly drawn) [Example 60]
12 | < 10 | Cc1cc(-c2nc(-c3ccc4c(c3)CCC4N[C@H]3C[C@H](C(=O)O)C3)no2)ccc1-c1c(Cl)ccc(C)c1F (stereo partly drawn) [Example 44]
13 | < 10 | Cc1cc(-c2nc(-c3cc(Cl)c4c(c3)CN([C@H]3C[C@H](C(=O)O)C3)C4)no2)ccc1-c1ccccc1 [Example 77]
14 | < 10 | Cc1cc(-c2nc(-c3ccc4c(c3)CCC4N[C@H]3C[C@H](C(=O)O)C3)no2)ccc1-c1cc(F)cc(F)c1F (stereo partly drawn) [Example 46]
15 | < 10 | Cc1cc(-c2nc(-c3ccc4c(c3)CN([C@H]3C[C@H](C(=O)O)C3)C4)no2)ccc1-c1ccccc1F [Example 84]
16 | < 10 | Cc1cc(-c2nc(-c3ccc4c(c3)CCC4NC3CC(C(=O)O)C3)no2)ccc1-c1cccc([N+](=O)[O-])c1C(F)(F)F (stereo not drawn) [Example 49]
17 | < 10 | Cc1cc(-c2nc(-c3ccc4c(c3)CCC4N[C@H]3C[C@H](C(=O)O)C3)no2)c(F)cc1-c1ccccc1OC(F)(F)F (stereo partly drawn) [Example 24]
18 | < 10 | Cc1cc(-c2nc(-c3ccc4c(c3)CCC4N[C@H]3C[C@H](C(=O)O)C3)no2)ccc1-c1ccccc1Cl (stereo partly drawn) [Example 58]
19 | < 10 | Cc1cc(-c2nc(-c3ccc4c(c3)CN([C@H]3C[C@H](C(=O)O)C3)C4)no2)ccc1-c1ccccc1Cl [Example 66]
20 | < 10 | Cc1cc(-c2nc(-c3ccc4c(c3)CCC4N[C@H]3C[C@H](C(=O)O)C3)no2)cc(C)c1-c1ccccc1 (stereo partly drawn) [Example 2]
21 | < 10 | Cc1cc(-c2nc(-c3ccc4c(c3)CCC4N[C@H]3C[C@H](C(=O)O)C3)no2)cc(C)c1-c1ccsc1 (stereo partly drawn) [Example 16]
22 | < 10 | O=C(O)[C@H]1C[C@H](N2Cc3ccc(-c4noc(-c5ccc(-c6ccccc6)c(Cl)c5)n4)cc3C2)C1 [Example 67]
23 | < 10 | COc1cccc(-c2ccc(-c3nc(-c4ccc5c(c4)CCC5N[C@H]4C[C@H](C(=O)O)C4)no3)cc2C)c1F (stereo partly drawn) [Example 38]
24 | < 10 | Cc1cc(-c2nc(-c3ccc4c(c3)CCC4N[C@H]3C[C@H](C(=O)O)C3)no2)ccc1-c1c(F)ccc(C)c1Cl (stereo partly drawn) [Example 43]
